In PMC8566451, “Lead optimization of novel quinolone chalcone compounds by a structure–activity relationship (SAR) study to increase efficacy and metabolic stability” (Scientific Reports, 2021):
Read-outs that look alike come from different tables or passages of the source.

What was measured:
[1] = test system: MDA-MB231-TaxR; assay: Sulforhodamine B (SRB) assay; format: cell-based; settings: Homo sapiens, MDA-MB231-TaxR paclitaxel-resistant breast cancer cells, 48 h
Excerpt: We had initially determined that quinolone chalcones were promising anti-proliferative through a first round screening and identified CTR-17 and CTR-20 as favorable structures for anticancer activity. […] We carried out a comparative SAR study to determine if we could further optimize the quinolone chalcone to maximize efficacy. The Sulforhodamine B (SRB) assay was used to measure the anti-proliferative/cell killing activities of CTRs, for which several different cell lines were use: the cervical cancer HeLa, the breast cancer cell lines MDA-MB231, MDA-MB468, MDA-MB231TaxR (an induced paclitaxel-resistant sub-cell line of the MDA-MB231[9]) and MCF7. In addition, a subset was tested against the melanoma cell lines MZ-MEL-3.1, Mel-SOE, UKRV-Mel-38, UKRV-Mel-17 and MDA-MB-435 (Table 1, Supplemental Table S1).
(§1) The SRB assay was used to assess drug-induced cytotoxicity and cell proliferation as previously described[2],[33],[34] with a few modifications. Briefly, cells were plated 10,000 to 25,000 cells/cm^2 in 96-well plates (100 µl medium) and allowed to adhere overnight. The cell counts were different for each cell line to ensure optimal cell growth for the duration of the assay. Eight different concentrations of compound solutions using 2–4 times serial dilutions (100 µl). Cells were then incubated for an additional 48 h and then fixed with 100 µl ice-cold 10% (w/v) trichloroacetic acid (TCA) (without removing the cell medium, final concentration, 3.3% of TCA) and stained with 0.4% SRB (w/v) in 1% acetic acid (v/v). The relative growth rate (%) was calculated for each of the compound concentrations according to the following formula: 100 * (T − T0)/(C − T0), in which T is the optical density (OD) after exposure to a certain concentration of the compound after 48 h, T0 is the OD at the start of drug exposure (time zero) and C is the control growth. The GI50 for each compound was obtained from a non-linear sigmoidal dose–response (variable slope) curve fitted by GraphPad Prism v.4.03 software.

[2] = test system: peripheral blood mononuclear cells (PBMC); assay: PBMC culture and MTS assay; format: cell-based, human; settings: for GI50: Homo sapiens, 48 h; for Selectivity Index (PBMC): PBMCs versus average GI50 of cancer cells
Experimental: Peripheral blood mononuclear cells from healthy donors were isolated by density gradient centrifugation using Ficoll solution as described below. Blood samples used were supplied by the Canadian Blood Services under the Institutional Research Ethics Board Project # 18–099, and no human participants or volunteers were involved directly in the current study.
Whole blood was gently layered over an equal volume of Ficoll and centrifuged at 800 × g for 20 min with no brake. The Buffy coat was carefully collected by pipetting in 50 mL tubes and topped off with PBS. The cell isolates were subsequently mixed by inversion and centrifuged at 300 × g for 12 min. The supernatant was then carefully aspirated without disturbing the cell pellet, and the PBMCs were resuspended in ammonium-chloride-potassium (ACK) lysis buffer. The tubes were left to stand for 15 min to allow for red blood cell lysis. PBS was again added to the cells and centrifuged at 300 × g for 12 min and pelleted PBMCs were resuspended in RPMI + 10% heat inactivated FBS. Following counting, cells were centrifuged again and cryopreserved with a freezing medium composed of 40% FBS, 10% DMSO and 50% culture medium. Cryovials were placed in a − 80 °C for 24 h prior to transfer to liquid nitrogen for long-term storage.
PBMC cryovials were transferred from liquid nitrogen and placed in a 37 °C water bath until almost completely thawed. 1 mL of pre-warmed medium was added drop-wise and the entire contents of the cryovial was transferred to a 15-mL tube. Pre-warmed medium was then added to bring the volume up to 10 mL. The PBMCs were centrifuged at 300 × g for 10 min, and the cell pellet was gently resuspended with 5 mL of warm medium. The tubes were subsequently placed in a 37 °C incubator in a 5° angled rack for 4 h. An additional 5 mL warm medium containing of 30 units/mL benzonase nuclease was then injected into the cell solution and left to stand at room temperature for 5 min before centrifugation for 10 min at 300 × g. The pelleted cells were resuspended in the medium with 100 units/mL of IL-2 (Cedarlane Laboratories, Burlington, ON, Canada) and a small aliquot was used for cell counting and viability staining. The cells were plated in 96-well plates at a density of 80,000–120,000 cellules/well/100 µL.
Following a 48-h incubation period, eight different concentrations of compound solutions using two to four-fold serial dilutions were added to the cells (100 µl). Cells were incubated for an additional 48 h and cytotoxicity was established using the CellTiter 96 cytotoxicity assay (Promega). 40 μl of the tetrazolium dye was added to each well of the plate and then incubated for 2 h. OD was then read directly at 490 nm using the automated Biotek Synergy H4 plate reader. The GI50 was calculated similarly to the SRB.

[3] = test system: cancer cell lines (breast cancer, melanoma, cervical cancer); assay: SRB assay, average GI50 over cancer cell lines; format: cell-based; settings: for fold decrease in GI50 relative to CTR-17: average GI50 compared with CTR-17
Experimental: as §1

[4] = target: tubulin (colchicine binding site) (Sus scrofa, UniProt P02550+P02554); assay: Colchicine binding site competition assay (fluorescence of tubulin-colchicine complex, modified Dixon plot); settings: for Ki / mode of inhibition of colchicine binding: modified Dixon plot; for mode of inhibition of colchicine binding: trendlines intersect above the X-axis
Experimental: (a) CTR-21 and CTR-32 inhibit microtubule polymerization in vitro. Spontaneous polymerization of 20 µM porcine tubulin was initiated with the addition of 1 mmol/L GTP at 37 °C and monitored every minute for 60 min in the presence of the indicated concentration of CTR-21, CTR-32, nocodazole, paclitaxel, or a DMSO vehicle control. To make the graph simpler, only 3 µM concentration is shown. The effects of higher doses are shown in Supplemental Fig. S9. […] Fluorescent intensity was compared to the fluorescence of the tubulin-colchicine complex in absence of CTR-21 or CTR-32 (F0). […] A modified Dixon plot was used to determine the inhibitory concentration of CTR-21 and CTR-32 (Ki).
When we added either CTR-21 or CTR-32 to the colchicine-tubulin complex, we observed a reduction in fluorescence in a dose -dependent manner (Fig. 2b).
Microtubule assembly was assessed using a Tubulin Polymerization assay kit (BK011P; Cytoskeleton Inc., Denver, CO). 20 µM of purified porcine tubulin proteins (> 99% purity) were suspended in G-PEM buffer containing 80 mM PIPES, 2 mM MgCl2, 0.5 mM EGTA, 1 mM GTP (pH 6.9) and 20% glycerol. Polymerization was started by incubating at 37 °C and followed by absorbance readings every 1 min at 340 nm for 1 h using a Synergy H4 plate reader.

[5] = PBMC #1, MTS, read-out: GI50 PBMC #1
[6] = PBMC #2, MTS, read-out: GI50 PBMC #2
[7] = Table 1 and Supplemental Table S1 cell lines, read-out: GI50 range over the cancer cell lines
[8] = average over the cell lines of Table 1 or Supplemental Table S1, read-out: average GI50

Compound | GI50 [1] | GI50 [2, 5] | GI50 [2, 6] | Selectivity Index (PBMC) [2] | GI50 [3, 7] | fold decrease in GI50 relative to CTR-17 [3] | GI50 [3, 8] | Ki [4] | mode of inhibition of colchicine binding [4] | SI, cancer over normal cells [3] | enhancement of potency over CTR-17 and CTR-20 [3] | strength of inhibition relative to CTR-32 (Ki ratio) ([4]; CTR-21 versus CTR-32)
CCOc1ccccc1C(=O)/C=C/c1cc2ccccc2[nH]c1=O [CTR-32, (E)-3-(3-(2-ethoxyphenyl)-3-oxoprop-1-enyl)quinolin-2(1H)-one] | 22 ± 4 nM | 1880 ± 147 nM | 787 ± 396 nM | 67 | 5 to 91 nM | 23 fold | 20 nM | 7200 nM | competitive inhibitors |  |  | 
COc1ccccc1C(=O)/C=C/c1cc2cccc(OC)c2[nH]c1=O [CTR-21, (E)-8-methoxy-3-(3-(2-methoxyphenyl)-3-oxoprop-1-enyl) quinolin-2(1H)-one] | 32 ± 8 nM | 1860 ± 336 nM | 1630 ± 317 nM | 106 | 5 to 91 nM | 31 fold | 16.4 nM | 1470 nM | competitive inhibitors | > 100 fold | ~ 30 fold | about 4.9 times
